Experimental data published in US8759366B2, “Aminopyrimidines as SYK inhibitors” (Merck Sharp & Dohme Corp., priority 2009, dated 2014).

Each compound was assayed against rhSYK (Homo sapiens (Human), UniProt P43405). Settings: read-out: rhSYK activity.

Structure (SMILES)	IC50 [nM]
CCOC(=O)C1CCC(O)(c2ncc(-c3cc(C)cc(Nc4nccc(C(F)(F)F)n4)c3)s2)CC1 (mixture of isomers) [Example 32, ethyl 4-hydroxy-4-[5-(3-methyl-5-{[4-(trifluoromethyl)pyrimidin-2-yl]amino}phenyl)-1,3-thiazol-2-yl]cyclohexanecarboxylate]	< 100
CC(O)(CO)c1ncc(-c2cccc(Nc3nccc(C(F)(F)F)n3)c2)s1 (single isomer, unassigned) [Ex 5-2]	< 100
CC(O)(CO)c1ncc(-c2cccc(Nc3nccc(C(F)(F)F)n3)c2)s1 (single isomer, unassigned) [Ex 5-3]	< 100
Cc1cc(Nc2nccc(C(F)(F)F)n2)cc(-c2cnc(C(C)(O)c3ccc(CC(=O)O)cc3)s2)c1 (single isomer, unassigned) [Example 4A-59]	100 to 1000
Cc1cc(Nc2nccc(C)n2)cc(-c2cnc(C3(O)CCC(C)(CC(=O)O)CC3)s2)c1 (single isomer, unassigned) [Example 4C-11]	< 100
Cc1cc(Nc2nccc(C)n2)cc(-c2cnc(C3(O)CCC(C)(CC(=O)O)CC3)s2)c1 (single isomer, unassigned) [Example 4C-12]	< 100
Cc1cc(Nc2nccc(C(F)(F)F)n2)cc(-c2cnc(C(O)C(F)(F)F)s2)c1 (single isomer, unassigned) [Example 6-3]	< 100
Cc1cc(Nc2nccc(C(F)(F)F)n2)cc(-c2cnc(C(O)C(F)(F)F)s2)c1 (single isomer, unassigned) [Example 6-4]	< 100
CCNC(=O)Nc1cc(Nc2nccc(C(F)(F)F)n2)cc(-c2cnc(C3CCC(C(N)=O)CC3)s2)c1 (single isomer, unassigned) [Example 20(2), 4-[5-(3-[(ethylcarbamoyl)amino]-5-{[4-(trifluoromethyl)pyrimidin-2-yl]amino}phenyl)-1,3-thiazol-2-yl]cyclohexanecarboxamide]	< 100
CC(=O)N1CCC(O)(c2ncc(-c3cccc(Nc4nccc(C(F)(F)F)n4)c3)s2)CC1 [4D-1]	< 100
OC1(c2ncc(-c3cccc(Nc4nccc(C(F)(F)F)n4)c3)s2)CCN(c2ccc(F)cc2)C1 (stereo not drawn) [4D-2]	1000 to 10000
OC1(c2ncc(-c3cccc(Nc4nccc(C(F)(F)F)n4)c3)s2)CCN(C2CC2)CC1 [4D-3]	< 100
CCOC(=O)N1CCC(O)(c2ncc(-c3cccc(Nc4nccc(C(F)(F)F)n4)c3)s2)CC1 [4D-4]	< 100
CC(C)N1CCC(O)(c2ncc(-c3cccc(Nc4nccc(C(F)(F)F)n4)c3)s2)CC1 [4D-5]	100 to 1000
Cc1cc(Nc2nccc(C)n2)cc(-c2cnc(C3(O)CCNC(=O)CC3)s2)c1 (stereo not drawn) [4D-7]	< 100
Cc1cc(Nc2nccc(C(F)(F)F)n2)cc(-c2cnc(C3(O)CCN(C4CC4)CC3)s2)c1 [4D-8]	< 100
Cc1cc(Nc2nccc(C(F)(F)F)n2)cc(-c2cnc(C3(O)CCN(c4ccccc4C)CC3)s2)c1 [4D-9]	100 to 1000
Cc1cc(Nc2nccc(C(F)(F)F)n2)cc(-c2cnc(C3(O)CCN(c4cccc(F)c4)CC3)s2)c1 [4D-10]	100 to 1000
Cc1cc(Nc2nccc(C(F)(F)F)n2)cc(-c2cnc(C3(O)CCN(c4ccccc4F)CC3)s2)c1 [4D-11]	100 to 1000
Cc1cc(Nc2nccc(C(F)(F)F)n2)cc(-c2cnc(C3(O)CCN(c4ccc(F)cc4)CC3)s2)c1 [4D-12]	< 100
Cc1cc(Nc2nccc(C(F)(F)F)n2)cc(-c2cnc(C3(O)CCN(C(=O)CCCC(=O)O)CC3)s2)c1 [4D-13]	< 100
COC(=O)C1CC(O)(c2ncc(-c3cc(C)cc(Nc4nccc(C(F)(F)F)n4)c3)s2)CCN1C(=O)OC(C)(C)C (stereo not drawn) [4D-14]	100 to 1000
Cc1cc(Nc2nccc(C(F)(F)F)n2)cc(-c2cnc(C3(O)CCN(C(=O)OC(C)(C)C)C(C(F)(F)F)C3)s2)c1 (stereo not drawn) [4D-15]	100 to 1000
Cc1cc(Nc2nccc(C(F)(F)F)n2)cc(-c2cnc(C3(C#N)CCC4(CC3)OCCO4)s2)c1 [8-[5-(3-methyl-5-{[4-(trifluoromethyl)pyrimidin-2-yl]amino}phenyl)-1,3-thiazol-2-yl]-1,4-dioxaspiro[4.5]decane-8-carbonitrile]	< 100
